Entries after “also recorded” stand apart in the source; their conditions may differ. Positions of bridges follow the written chain, without caps; N, C: chain ends. Residues, ends and D or L forms follow the SMILES beside them.
Key:
Assay in all cases: cell-based
S. aureus agr-II = S. aureus agr-II (Staphylococcus aureus, UniProt O33587)
How it was run: (§1)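 Fluorescence of the agr-driven P3 reporter, read after 22–24 h of growth with peptide at 37°C, was corrected for medium background and divided by OD600. Activity is given relative to wells without peptide, and IC50 values were fitted by non-linear regression with variable slope.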

S. lugdunensis agr-I = S. lugdunensis agr-I (Staphylococcus lugdunensis, UniProt Q8VSW5); conditions: for QS interaction in words (inhibition / activation), S. lugdunensis agr-I: fluorescent reporter strain, peptides tested at 1000, 50, 2.5, 0.125 nM or in dose-response
Chain of S. lugdunensis agr-I (Q8VSW5 entry or part of it): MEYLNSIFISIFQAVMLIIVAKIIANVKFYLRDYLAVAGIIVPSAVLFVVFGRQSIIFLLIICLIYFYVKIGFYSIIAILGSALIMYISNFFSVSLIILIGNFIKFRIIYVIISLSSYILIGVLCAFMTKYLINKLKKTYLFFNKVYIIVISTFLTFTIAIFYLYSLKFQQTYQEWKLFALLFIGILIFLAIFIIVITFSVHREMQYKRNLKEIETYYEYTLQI
How it was run: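 Staphylococcal agr reporters were grown with peptide for 22–24 h at 37°C. Background-corrected fluorescence per OD600 was expressed as a percentage of untreated control, and IC50 was obtained by variable-slope regression.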

S. aureus agr-III = S. aureus agr-III (Staphylococcus aureus, UniProt O33590)
Chain of S. aureus agr-III (O33590 entry or part of it): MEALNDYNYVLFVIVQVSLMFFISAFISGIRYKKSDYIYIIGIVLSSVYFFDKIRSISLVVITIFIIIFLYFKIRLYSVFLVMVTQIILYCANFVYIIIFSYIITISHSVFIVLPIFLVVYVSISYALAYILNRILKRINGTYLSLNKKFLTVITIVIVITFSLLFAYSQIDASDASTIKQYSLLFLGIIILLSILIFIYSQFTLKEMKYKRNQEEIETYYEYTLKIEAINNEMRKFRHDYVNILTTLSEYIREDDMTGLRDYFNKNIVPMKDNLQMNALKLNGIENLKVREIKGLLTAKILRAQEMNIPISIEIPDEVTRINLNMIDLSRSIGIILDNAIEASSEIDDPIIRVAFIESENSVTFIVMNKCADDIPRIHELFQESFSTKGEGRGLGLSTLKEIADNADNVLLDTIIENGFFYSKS
How it was run: as §1

S. aureus agr-IV = S. aureus agr-IV (Staphylococcus aureus, UniProt Q309Z2); assay type: cell-based
Chain of S. aureus agr-IV (Q309Z2 entry or part of it): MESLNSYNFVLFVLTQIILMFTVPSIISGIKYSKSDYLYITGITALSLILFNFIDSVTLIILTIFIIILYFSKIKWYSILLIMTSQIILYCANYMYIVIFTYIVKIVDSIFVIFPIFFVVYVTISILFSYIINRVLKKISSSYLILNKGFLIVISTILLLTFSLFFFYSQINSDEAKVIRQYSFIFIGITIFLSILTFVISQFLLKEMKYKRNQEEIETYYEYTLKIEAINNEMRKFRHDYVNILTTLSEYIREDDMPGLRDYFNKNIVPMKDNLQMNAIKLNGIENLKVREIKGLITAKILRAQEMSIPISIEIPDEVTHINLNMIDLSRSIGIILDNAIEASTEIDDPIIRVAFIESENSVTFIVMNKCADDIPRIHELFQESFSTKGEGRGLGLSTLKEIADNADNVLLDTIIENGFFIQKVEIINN
How it was run: as §1

S. epidermidis agr-II = S. epidermidis agr-II (Staphylococcus epidermidis, UniProt Q8VSX5); assay type: cell-based; conditions: for QS interaction in words (inhibition / activation), S. epidermidis agr-II: fluorescent reporter strain, peptides tested at 1000, 50, 2.5, 0.125 nM or in dose-response
Chain of S. epidermidis agr-II (Q8VSX5 entry or part of it): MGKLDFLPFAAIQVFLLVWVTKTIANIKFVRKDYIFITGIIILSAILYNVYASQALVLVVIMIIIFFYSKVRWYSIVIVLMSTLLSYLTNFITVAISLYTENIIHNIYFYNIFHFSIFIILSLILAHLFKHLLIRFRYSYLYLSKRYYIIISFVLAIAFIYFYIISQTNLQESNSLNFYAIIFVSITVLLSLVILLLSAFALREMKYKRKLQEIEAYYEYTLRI
How it was run: as §1

S. epidermidis agr-III = S. epidermidis agr-III (Staphylococcus epidermidis, UniProt Q8VSX2); assay type: cell-based; conditions: for QS interaction in words (inhibition / activation), S. epidermidis agr-III: fluorescent reporter strain, peptides tested at 1000, 50, 2.5, 0.125 nM or in dose-response
Chain of S. epidermidis agr-III (Q8VSX2 entry or part of it): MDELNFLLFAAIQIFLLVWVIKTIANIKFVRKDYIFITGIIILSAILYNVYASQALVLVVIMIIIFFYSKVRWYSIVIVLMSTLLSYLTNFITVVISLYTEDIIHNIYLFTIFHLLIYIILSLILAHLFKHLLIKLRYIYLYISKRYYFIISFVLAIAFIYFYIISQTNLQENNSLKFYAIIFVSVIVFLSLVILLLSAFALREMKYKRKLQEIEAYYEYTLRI
How it was run: as §1

[1] = fluorescent reporter strain, peptides tested at 1000, 50, 2.5, 0.125 nM or in dose-response

Chain of S. aureus agr-II (O33587 entry or part of it): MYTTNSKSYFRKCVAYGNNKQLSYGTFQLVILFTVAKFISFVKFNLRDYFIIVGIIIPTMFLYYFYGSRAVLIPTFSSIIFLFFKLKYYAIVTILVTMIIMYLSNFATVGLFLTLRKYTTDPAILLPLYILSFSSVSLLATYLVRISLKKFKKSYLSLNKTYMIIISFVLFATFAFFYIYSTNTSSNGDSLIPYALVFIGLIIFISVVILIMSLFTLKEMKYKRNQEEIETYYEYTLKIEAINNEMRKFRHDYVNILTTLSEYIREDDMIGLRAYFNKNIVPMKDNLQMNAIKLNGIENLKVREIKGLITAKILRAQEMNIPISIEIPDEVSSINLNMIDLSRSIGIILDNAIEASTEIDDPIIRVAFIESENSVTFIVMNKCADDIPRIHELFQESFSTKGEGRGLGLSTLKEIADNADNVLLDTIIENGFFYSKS

Row | Molecule | IC50 (S. aureus agr-II) [nM] | IC50 (S. lugdunensis agr-I) [nM] | IC50 (S. aureus agr-III) [nM] | IC50 (S. aureus agr-IV) [nM] | IC50 (S. epidermidis agr-II) [nM] | QS interaction in words (inhibition / activation), S. epidermidis agr-III (S. epidermidis agr-III) | QS interaction in words (inhibition / activation), S. epidermidis agr-III (S. epidermidis agr-III; listed as S. simulans AIP-I) | QS interaction in words (inhibition / activation), S. lugdunensis agr-I (S. lugdunensis agr-I) | QS inhibition at […], S. aureus agr-IV (S. aureus agr-IV; […] peptide, fluorescent reporter strain) [%] | QS interaction in words (inhibition / activation), S. epidermidis agr-II (S. epidermidis agr-II) | QS interaction in words (inhibition / activation), S. aureus agr-II (S. aureus agr-II; [1]) | QS interaction in words (inhibition / activation), S. aureus agr-III (S. aureus agr-III; [1]) | QS interaction in words (inhibition / activation), S. aureus agr-IV (S. aureus agr-IV; [1]) | IC50 (S. epidermidis agr-III) [nM] | IC50 fold lower compared with the most potent, previously reported inhibitors of S. lugdunensis (S. lugdunensis agr-I; S. lugdunensis agr-I, comparison with [37]) [fold] | QS interaction in words (inhibition / activation), S. epidermidis agr-III (S. epidermidis agr-III; listed as S. simulans AIP-III)
1 | CC(C)C[C@@H]1NC(=O)[C@@H](NC(=O)[C@@H]2CCCN2C(=O)[C@H](CC(N)=O)NC(=O)[C@H](Cc2ccc(O)cc2)NC(=O)[C@@H](N)CCCCN)CSC(=O)[C@H](CC(C)C)NC(=O)[C@H](Cc2ccccc2)NC(=O)CNC1=O [compound 32, S. simulans AIP-I] (H-KYNPCLGFL; thioester 5-C; N-terminus assumed) | 0.31 ± 0.01 | 113 ± 11 | 0.53 ± 0.02 | 10 | 0.26 ± 0.01 | activated; also recorded: activators | activation | – | – | – | – | – | – | – | – | –
2 | S. aureus AIP-III D4A [compound 57, reference compound] | – | – | – | – | – | weak interference | – | weak interference | > 95 | weak interference | – | – | – | – | – | –
3 | NCCCC[C@H](N)C(=O)N[C@@H](Cc1ccc(O)cc1)C(=O)N[C@@H](Cc1ccc(O)cc1)C(=O)N1CCC[C@H]1C(=O)N[C@H]1CSC(=O)[C@H](Cc2ccccc2)NC(=O)[C@H](Cc2ccc(O)cc2)NC(=O)CNC(=O)[C@H](Cc2c[nH]c3ccccc23)NC1=O [compound 33, S. simulans AIP-II] (H-KYYPCWGYF; thioester 5-C) | 0.8 ± 0.2 | 1.2 ± 0.2 | 2.8 ± 0.3 | 31 ± 7 | 0.26 ± 0.08 | inhibited; also recorded: sub-nanomolar inhibition | – | inhibited; also recorded: sub- or low-nanomolar potencies | – | inhibited | inhibited | inhibited | inhibited | 0.6 ± 0.2 | – | –
4 | CC[C@H](C)[C@@H]1NC(=O)[C@H](Cc2ccccc2)NC(=O)[C@H](CC(=O)O)NC(=O)[C@@H](NC(=O)[C@@H](NC(=O)[C@H](CO)NC(=O)[C@@H](N)Cc2ccc(O)cc2)[C@@H](C)O)CSC(=O)[C@H](CCSC)NC1=O [compound 1, S. aureus AIP-I] (H-YSTCDFIM; thioester 4-C) | 5.8 ± 0.7 | > 1000 | 0.91 | – | > 1000 | – | – | – | – | – | – | – | – | > 1000 | – | –
5 | NCCCC[C@H](N)C(=O)N[C@@H](Cc1ccc(O)cc1)C(=O)N[C@@H](CC(N)=O)C(=O)N1CCC[C@H]1C(=O)N[C@H]1CSC(=O)[C@H](Cc2ccccc2)NC(=O)[C@H](Cc2ccc(O)cc2)NC(=O)CNC(=O)[C@H](Cc2c[nH]c3ccccc23)NC1=O [compound 34, S. simulans AIP-III] (H-KYNPCWGYF; thioester 5-C) | 0.22 ± 0.06 | 0.48 | 0.59 ± 0.04 | 34 | 0.11 ± 0.02 | activated; also recorded: activators | – | sub- or low-nanomolar potencies | – | – | – | – | – | – | 400 | activator
